# Measured values published in publication PMC4141478 (Nature communications, 2014).
# Biological target: T1, Full length EhIP6KA (Entamoeba histolytica, UniProt C4M387)
# T1 sequence (C4M387 1-270): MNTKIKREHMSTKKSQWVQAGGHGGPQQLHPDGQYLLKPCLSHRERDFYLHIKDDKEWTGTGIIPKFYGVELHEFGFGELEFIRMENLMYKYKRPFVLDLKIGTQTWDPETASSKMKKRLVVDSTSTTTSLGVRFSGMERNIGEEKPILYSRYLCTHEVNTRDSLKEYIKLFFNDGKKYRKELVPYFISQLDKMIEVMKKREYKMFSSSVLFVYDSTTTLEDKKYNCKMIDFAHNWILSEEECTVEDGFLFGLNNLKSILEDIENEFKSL
# Assay: NMR of reaction product
# Assay type: biochemical
# Details: 3 mM ATP, 2 mM MgCl2, pH 7.0, 37 then 25 C; product 5-InsP7
smiles,measurement,value
O=P(O)(O)O[C@H]1[C@H](OP(=O)(O)O)[C@@H](OP(=O)(O)O)[C@H](OP(=O)(O)O)[C@@H](OP(=O)(O)O)[C@H]1OP(=O)(O)O [InsP6],NMR of reaction product,"EhIP6KA, like mammalian IP6Ks, converts InsP6 to 5-InsP7"
